Source: US20070149523A1, “Thiazole Analogues and Uses Thereof” (priority 2005, published 2007)

Key:
Aurora B [1] = target: T1, Aurora B (Homo sapiens, UniProt Q96GD4); assay: In vitro protein kinase assay (radioisotopic 33P, FlashPlate); format: biochemical; set-up: made in house; host or cells: Sf9 insect cells (baculovirus); conditions: recombinant human kinase
Description: (§1) The effect of the thiazole derivatives was tested on recombinant, human protein kinases in in vitro protein kinase assays.
(§2) The protein kinases were expressed in Sf9 insect cells as human recombinant GST-fusion proteins or as His-tagged proteins by means of the baculovirus expression system.
(§3) The kinase activity was measured with a radioisotopic protein kinase assay by measuring the incorporation of ^33P-phosphate into proteins or peptide substrates. The assays were performed in FlashPlate™ microtiter scintillation plates and incorporation of ^33P-phosphate was determined with a microplate scintillation counter.

VEGF-R2 [2] = target: T2, VEGF-R2 (Homo sapiens, UniProt P35968); assay: as above; format: biochemical; set-up: made in house; host or cells: Sf9 insect cells (baculovirus); conditions: recombinant human kinase
Description: as §1, §2, §3
Target sequence in this assay (P35968 20-1356): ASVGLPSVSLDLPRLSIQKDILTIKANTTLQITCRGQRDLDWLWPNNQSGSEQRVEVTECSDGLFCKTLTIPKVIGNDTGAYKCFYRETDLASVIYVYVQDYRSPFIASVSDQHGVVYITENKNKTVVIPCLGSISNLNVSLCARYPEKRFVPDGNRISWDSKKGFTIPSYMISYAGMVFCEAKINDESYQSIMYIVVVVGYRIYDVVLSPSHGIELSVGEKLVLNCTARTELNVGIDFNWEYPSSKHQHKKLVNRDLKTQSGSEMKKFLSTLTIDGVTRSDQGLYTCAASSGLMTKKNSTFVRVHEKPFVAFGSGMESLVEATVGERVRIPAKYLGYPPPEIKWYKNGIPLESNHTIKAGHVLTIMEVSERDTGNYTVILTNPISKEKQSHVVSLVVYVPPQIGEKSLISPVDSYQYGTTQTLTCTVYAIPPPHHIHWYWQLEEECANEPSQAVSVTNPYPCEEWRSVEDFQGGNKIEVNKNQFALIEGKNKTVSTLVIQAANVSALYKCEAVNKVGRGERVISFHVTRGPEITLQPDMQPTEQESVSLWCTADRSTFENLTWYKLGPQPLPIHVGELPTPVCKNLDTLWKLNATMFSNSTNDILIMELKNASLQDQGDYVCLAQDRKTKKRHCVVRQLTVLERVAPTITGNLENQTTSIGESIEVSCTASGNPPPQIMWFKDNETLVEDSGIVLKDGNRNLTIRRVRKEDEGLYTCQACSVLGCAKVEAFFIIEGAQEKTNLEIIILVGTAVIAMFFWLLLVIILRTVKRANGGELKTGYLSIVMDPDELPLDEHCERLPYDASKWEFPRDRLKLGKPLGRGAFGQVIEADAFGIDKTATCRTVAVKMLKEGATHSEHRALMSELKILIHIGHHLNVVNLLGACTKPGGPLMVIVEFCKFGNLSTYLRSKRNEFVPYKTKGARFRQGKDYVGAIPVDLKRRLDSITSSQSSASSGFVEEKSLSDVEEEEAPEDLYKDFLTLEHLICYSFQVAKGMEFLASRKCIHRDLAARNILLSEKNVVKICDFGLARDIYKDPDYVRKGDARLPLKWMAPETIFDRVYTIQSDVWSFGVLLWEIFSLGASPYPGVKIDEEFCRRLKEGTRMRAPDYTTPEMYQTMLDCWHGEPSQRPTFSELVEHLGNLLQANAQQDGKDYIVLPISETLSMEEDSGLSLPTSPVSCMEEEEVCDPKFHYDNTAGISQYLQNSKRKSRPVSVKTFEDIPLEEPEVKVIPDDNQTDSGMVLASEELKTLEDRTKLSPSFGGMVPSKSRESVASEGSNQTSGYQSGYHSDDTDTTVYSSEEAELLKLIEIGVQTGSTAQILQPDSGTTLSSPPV

PDGF-Rβ [3] = target: T3, PDGF-Rβ (Homo sapiens, UniProt P09619); assay: as above; format: biochemical; set-up: made in house; host or cells: Sf9 insect cells (baculovirus); conditions: recombinant human kinase
Description: as §1, §2, §3

FLT3 = target: T4, FLT3 (Homo sapiens, UniProt P36888); assay: as above; format: biochemical; conditions: recombinant human kinase
T4 construct: made in house; host or cells: Sf9 insect cells (baculovirus)
T4 sequence (P36888 27-993): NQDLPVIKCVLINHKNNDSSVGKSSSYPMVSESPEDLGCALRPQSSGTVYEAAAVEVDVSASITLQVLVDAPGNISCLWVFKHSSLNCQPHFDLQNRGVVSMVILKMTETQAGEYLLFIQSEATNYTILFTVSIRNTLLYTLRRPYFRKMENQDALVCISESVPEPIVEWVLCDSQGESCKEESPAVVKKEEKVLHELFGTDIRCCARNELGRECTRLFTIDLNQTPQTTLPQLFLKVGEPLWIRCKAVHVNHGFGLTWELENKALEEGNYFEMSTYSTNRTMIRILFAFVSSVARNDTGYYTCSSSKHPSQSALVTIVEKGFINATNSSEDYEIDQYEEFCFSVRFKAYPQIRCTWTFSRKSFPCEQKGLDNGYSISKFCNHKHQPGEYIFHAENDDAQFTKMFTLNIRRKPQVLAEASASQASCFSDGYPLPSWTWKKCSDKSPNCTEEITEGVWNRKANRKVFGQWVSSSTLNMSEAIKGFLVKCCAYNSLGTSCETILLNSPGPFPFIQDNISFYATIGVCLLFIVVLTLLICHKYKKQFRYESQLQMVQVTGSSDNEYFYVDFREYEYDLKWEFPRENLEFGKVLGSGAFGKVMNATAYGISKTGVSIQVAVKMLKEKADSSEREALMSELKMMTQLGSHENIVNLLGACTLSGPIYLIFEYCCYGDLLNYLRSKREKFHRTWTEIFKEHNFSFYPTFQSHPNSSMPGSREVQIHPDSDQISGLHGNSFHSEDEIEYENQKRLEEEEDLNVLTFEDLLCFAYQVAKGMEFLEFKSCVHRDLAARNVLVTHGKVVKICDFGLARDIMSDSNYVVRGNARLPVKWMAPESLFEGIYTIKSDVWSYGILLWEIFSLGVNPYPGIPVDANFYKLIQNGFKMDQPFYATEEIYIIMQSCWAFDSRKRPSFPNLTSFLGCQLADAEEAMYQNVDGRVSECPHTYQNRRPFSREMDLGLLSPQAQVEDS
Description: as §1, §2, §3

EGF-R = target: T5, EGF-R (Homo sapiens, UniProt P00533); assay: as above; format: biochemical; conditions: recombinant human kinase
T5 construct: made in house; host or cells: Sf9 insect cells (baculovirus)
T5 sequence (P00533 25-1210): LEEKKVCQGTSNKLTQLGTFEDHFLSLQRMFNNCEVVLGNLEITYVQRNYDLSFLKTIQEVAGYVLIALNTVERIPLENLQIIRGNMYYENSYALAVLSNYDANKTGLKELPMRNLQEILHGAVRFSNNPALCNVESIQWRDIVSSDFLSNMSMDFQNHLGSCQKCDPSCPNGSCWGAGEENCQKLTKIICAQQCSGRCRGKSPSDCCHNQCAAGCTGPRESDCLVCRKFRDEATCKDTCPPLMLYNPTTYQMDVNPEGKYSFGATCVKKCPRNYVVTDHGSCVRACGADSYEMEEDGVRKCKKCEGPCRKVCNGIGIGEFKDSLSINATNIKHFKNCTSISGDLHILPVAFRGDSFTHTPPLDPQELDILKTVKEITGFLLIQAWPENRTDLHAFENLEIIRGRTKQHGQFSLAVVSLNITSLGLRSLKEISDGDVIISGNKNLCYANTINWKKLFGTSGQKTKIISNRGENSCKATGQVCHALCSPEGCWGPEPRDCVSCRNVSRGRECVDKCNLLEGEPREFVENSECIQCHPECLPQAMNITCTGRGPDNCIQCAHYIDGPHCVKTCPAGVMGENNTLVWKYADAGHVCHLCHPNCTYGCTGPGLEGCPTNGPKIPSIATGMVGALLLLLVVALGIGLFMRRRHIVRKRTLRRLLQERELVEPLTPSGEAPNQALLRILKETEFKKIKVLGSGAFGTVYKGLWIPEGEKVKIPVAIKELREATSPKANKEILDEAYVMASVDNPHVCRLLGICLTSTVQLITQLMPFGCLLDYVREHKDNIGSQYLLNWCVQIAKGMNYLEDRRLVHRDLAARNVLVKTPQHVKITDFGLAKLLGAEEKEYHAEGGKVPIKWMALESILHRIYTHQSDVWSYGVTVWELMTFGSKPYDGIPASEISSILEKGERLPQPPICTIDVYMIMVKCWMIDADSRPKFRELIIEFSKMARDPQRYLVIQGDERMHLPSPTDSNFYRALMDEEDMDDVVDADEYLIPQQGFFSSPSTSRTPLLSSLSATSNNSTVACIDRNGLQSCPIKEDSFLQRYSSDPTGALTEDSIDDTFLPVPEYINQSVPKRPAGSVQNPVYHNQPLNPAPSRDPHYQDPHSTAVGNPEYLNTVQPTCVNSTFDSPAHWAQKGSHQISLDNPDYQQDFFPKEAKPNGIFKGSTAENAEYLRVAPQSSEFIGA
Description: as §1, §2, §3

VEGF-R3 = target: T6, VEGF-R3 (Homo sapiens, UniProt P35916); assay: as above; format: biochemical; conditions: recombinant human kinase
T6 construct: made in house; host or cells: Sf9 insect cells (baculovirus)
T6 sequence (P35916 25-1363): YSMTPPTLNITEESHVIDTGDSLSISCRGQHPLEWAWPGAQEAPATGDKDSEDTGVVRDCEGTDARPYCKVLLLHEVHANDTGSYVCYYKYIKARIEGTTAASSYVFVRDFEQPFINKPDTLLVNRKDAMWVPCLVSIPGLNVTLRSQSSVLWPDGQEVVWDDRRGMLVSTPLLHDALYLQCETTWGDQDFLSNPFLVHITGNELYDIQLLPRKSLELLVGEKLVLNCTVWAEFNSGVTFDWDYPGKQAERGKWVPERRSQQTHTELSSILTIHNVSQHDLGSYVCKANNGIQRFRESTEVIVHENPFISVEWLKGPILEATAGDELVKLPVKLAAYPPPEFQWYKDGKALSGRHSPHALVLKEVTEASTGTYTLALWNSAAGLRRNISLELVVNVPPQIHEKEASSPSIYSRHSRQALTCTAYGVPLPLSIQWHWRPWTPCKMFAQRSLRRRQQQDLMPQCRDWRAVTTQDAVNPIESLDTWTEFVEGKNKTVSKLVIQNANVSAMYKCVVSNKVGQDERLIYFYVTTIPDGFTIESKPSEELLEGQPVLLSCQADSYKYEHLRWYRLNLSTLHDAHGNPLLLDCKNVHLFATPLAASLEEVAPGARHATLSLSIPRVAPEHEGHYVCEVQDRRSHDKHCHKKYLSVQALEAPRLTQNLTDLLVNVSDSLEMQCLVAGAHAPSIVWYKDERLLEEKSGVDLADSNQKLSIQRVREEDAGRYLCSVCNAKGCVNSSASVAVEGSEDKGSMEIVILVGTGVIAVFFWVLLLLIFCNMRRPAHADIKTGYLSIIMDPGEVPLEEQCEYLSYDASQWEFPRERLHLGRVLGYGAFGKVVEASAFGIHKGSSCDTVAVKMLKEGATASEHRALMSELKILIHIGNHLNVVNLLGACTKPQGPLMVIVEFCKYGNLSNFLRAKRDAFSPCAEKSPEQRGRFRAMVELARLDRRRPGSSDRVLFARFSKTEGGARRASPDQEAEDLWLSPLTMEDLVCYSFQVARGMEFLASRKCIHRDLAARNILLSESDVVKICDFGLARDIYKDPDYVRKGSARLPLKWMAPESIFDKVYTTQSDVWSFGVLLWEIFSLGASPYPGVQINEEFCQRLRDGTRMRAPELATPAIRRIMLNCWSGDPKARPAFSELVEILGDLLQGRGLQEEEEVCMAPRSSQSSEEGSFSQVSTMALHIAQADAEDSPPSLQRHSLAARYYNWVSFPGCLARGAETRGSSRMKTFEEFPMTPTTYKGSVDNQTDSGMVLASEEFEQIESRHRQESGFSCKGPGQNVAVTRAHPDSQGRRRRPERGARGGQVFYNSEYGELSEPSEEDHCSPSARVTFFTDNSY
Description: as §1, §2, §3

TIE2 = target: T7, TIE2 (Homo sapiens, UniProt Q02763); assay: as above; format: biochemical; conditions: recombinant human kinase
T7 construct: made in house; host or cells: Sf9 insect cells (baculovirus)
Description: as §1, §2, §3

Aurora A = target: T8, Aurora A (Homo sapiens, UniProt O14965); assay: as above; format: biochemical; conditions: recombinant human kinase
T8 construct: made in house; host or cells: Sf9 insect cells (baculovirus)
T8 sequence (O14965 1-403): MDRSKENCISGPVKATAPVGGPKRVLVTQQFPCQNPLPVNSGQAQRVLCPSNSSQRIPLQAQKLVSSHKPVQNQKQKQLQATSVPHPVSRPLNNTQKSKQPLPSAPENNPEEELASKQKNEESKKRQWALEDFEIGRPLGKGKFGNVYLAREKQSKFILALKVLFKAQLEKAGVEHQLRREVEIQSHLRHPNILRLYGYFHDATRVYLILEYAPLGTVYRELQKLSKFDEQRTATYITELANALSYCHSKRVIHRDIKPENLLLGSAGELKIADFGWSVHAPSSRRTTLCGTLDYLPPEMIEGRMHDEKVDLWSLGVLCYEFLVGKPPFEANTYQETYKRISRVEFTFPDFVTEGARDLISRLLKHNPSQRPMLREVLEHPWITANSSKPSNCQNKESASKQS
Description: as §1, §2, §3

Aurora B [4] = target: T1, Aurora B; assay: Cellular Aurora-B Kinase Assay (endoreduplication of genomic DNA, PI/FACS); format: cell-based; set-up: endogenous in cells; host or cells: HT29 colon carcinoma cells; conditions: HT29 colon-carcinoma cells, 3 days treatment, EndoR-population
Description: The effect of thiazole derivatives was tested in a cellular Aurora-B assay by measuring the effect of the test compounds on the endoreduplication (EndoR) of genomic DNA. Endoreduplication is detectable in cells as DNA-content higher then 4 n. Propidium Iodine (PI) was used to quantify the DNA content using a fluorescence activated cell sorter (FACS).
In the experiment, HT29 colon-carcinoma cells were treated with test compounds at different concentrations for 3 days. On day 5 cells were harvested and fixed in methanol. On day 6 cells were rehydrated and incubated with RNAse A and PI. Incorporated PI was detected by FACS measuring fluorescence emission at 650 nm upon excitation at 488 nm. For each compound concentration the percentage of EndoR-population as compared to the whole cell population was determined. For estimation of IC50 values of Aurora-B inhibition the percentages of EndoR-populations were plotted versus compound concentrations.

VEGF-R2 [5] = target: T2, VEGF-R2; assay: Cellular Receptor Tyrosine Kinase Assay (autophosphorylation, sandwich ELISA); format: cell-based; set-up: host or cells: unnamed cell line; conditions: ligand-induced receptor autophosphorylation in cells
Description: (§4) The effect of thiazole derivatives was tested by determining the inhibition of different receptor tyrosine kinases (RTKs) in various cell lines which expressed the following growth factor receptors: EGF-R, PDGF-R, TIE2, IGF-1R, EPHB4, and VEGF-R2. Receptor autophosphorylation was induced by specific ligands for each receptor. […] Test compounds were applied to cells prior to stimulation. Cells were lysed using a standard lysis buffer preserving the distinct phosphoprotein levels. RTK-phosphorylation was quantified via sandwich ELISA using receptor-specific capture antibodies and a phosphotyrosine antibody.
(§5) Sigmoidal inhibitor curves based on relative inhibition compared with phosphorylation levels under high control conditions were generated which allowed the determination of IC50 values for each test compound.
Target sequence in this assay (P35968 20-1356, species assumed): as the sequence (P35968 20-1356) above

PDGF-Rβ [6] = target: T3, PDGF-Rβ; assay: as above; format: cell-based; set-up: host or cells: unnamed cell line; conditions: ligand-induced receptor autophosphorylation in cells
Description: as §4, §5

PDGF-Rα = target: T9, PDGF-Rα (Homo sapiens, UniProt P16234); assay: In vitro protein kinase assay (radioisotopic 33P, FlashPlate); format: biochemical; conditions: recombinant human kinase
T9 construct: made in house; host or cells: Sf9 insect cells (baculovirus)
Description: as §1, §2, §3

LCK = target: T10, LCK (Homo sapiens, UniProt P06239); assay: as above; format: biochemical; conditions: recombinant human kinase
T10 construct: made in house; host or cells: Sf9 insect cells (baculovirus)
Description: as §1, §2, §3

TRK-A = target: T11, TRK-A (Homo sapiens, UniProt P04629); assay: as above; format: biochemical; conditions: recombinant human kinase
T11 construct: made in house; host or cells: Sf9 insect cells (baculovirus)
T11 sequence (P04629 33-796): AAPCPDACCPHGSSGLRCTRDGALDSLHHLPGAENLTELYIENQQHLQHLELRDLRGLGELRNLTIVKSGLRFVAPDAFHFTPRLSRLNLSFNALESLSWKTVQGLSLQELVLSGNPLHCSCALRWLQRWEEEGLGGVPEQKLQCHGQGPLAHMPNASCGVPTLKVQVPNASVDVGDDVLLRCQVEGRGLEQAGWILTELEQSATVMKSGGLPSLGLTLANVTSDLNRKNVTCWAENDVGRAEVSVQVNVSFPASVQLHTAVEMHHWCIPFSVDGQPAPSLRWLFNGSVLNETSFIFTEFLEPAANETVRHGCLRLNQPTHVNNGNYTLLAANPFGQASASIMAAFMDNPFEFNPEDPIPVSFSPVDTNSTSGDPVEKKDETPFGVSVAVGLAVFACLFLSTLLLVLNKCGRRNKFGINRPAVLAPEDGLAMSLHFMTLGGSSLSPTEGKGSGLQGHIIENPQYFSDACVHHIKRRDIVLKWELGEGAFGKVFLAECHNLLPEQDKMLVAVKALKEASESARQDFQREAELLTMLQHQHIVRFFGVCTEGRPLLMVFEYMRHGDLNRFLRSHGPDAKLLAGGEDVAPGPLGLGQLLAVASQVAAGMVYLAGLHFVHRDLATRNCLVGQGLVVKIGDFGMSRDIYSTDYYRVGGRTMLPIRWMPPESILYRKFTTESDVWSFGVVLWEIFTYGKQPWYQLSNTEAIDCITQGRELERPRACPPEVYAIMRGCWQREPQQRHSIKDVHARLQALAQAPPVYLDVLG
Description: as §1, §2, §3

RET = target: T12, RET (Homo sapiens, UniProt P07949); assay: as above; format: biochemical; conditions: recombinant human kinase
T12 construct: made in house; host or cells: Sf9 insect cells (baculovirus)
Description: as §1, §2, §3

KIT = target: T13, KIT (Homo sapiens, UniProt P10721); assay: as above; format: biochemical; conditions: recombinant human kinase
T13 construct: made in house; host or cells: Sf9 insect cells (baculovirus)
Description: as §1, §2, §3

VEGF-R1 = target: T14, VEGF-R1 (Homo sapiens, UniProt P17948); assay: as above; format: biochemical; conditions: recombinant human kinase
T14 construct: made in house; host or cells: Sf9 insect cells (baculovirus)
Description: as §1, §2, §3

IRAK4 = target: T15, IRAK4 (Homo sapiens, UniProt Q9NWZ3); assay: as above; format: biochemical; conditions: recombinant human kinase
T15 construct: made in house; host or cells: Sf9 insect cells (baculovirus)
T15 sequence (Q9NWZ3 1-460): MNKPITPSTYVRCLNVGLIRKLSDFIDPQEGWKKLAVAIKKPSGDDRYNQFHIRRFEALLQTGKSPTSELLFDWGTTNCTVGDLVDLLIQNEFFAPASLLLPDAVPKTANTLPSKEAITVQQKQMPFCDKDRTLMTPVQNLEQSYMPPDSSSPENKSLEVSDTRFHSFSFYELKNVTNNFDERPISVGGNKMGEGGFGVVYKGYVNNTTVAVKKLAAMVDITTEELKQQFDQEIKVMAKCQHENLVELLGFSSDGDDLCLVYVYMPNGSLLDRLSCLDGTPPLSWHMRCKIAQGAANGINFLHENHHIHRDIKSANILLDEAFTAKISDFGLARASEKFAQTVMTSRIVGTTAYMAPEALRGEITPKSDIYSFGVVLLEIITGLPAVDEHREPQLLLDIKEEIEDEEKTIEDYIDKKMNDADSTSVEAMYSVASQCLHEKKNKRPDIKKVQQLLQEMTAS
Description: as §1, §2, §3

T1 sequence (Q96GD4 whole entry): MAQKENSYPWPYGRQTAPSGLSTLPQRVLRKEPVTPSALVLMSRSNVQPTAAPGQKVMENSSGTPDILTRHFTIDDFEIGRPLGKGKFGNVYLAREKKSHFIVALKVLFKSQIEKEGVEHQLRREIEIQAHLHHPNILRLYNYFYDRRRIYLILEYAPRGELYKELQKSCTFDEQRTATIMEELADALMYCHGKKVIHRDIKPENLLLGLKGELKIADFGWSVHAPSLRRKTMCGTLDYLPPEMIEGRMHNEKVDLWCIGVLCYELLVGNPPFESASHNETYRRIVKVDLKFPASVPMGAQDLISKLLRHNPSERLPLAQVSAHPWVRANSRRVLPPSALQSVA

## COc1cc2ncnc(Nc3ncc(CCC(=O)Nc4ccc(F)cc4)s3)c2cc1OC [Compound 8, 3-(2-(6,7-dimethoxyquinazolin-4-ylamino)thiazol-5-yl)-N-(4-fluorophenyl)propanamide]
Aurora B [1]
  IC50: 2.3 µM
VEGF-R2 [2]
  IC50: 0.96 µM
PDGF-Rβ [3]
  IC50: 27 µM
FLT3
  IC50: 5.4 µM
EGF-R
  IC50: 61 µM
VEGF-R3
  IC50: 1.1 µM
TIE2
  IC50: 14 µM
Aurora A
  IC50: 6 µM

## COC(=O)CCc1cnc(Nc2ncnc3cc(OC)c(OC)cc23)s1 [Compound 3, 3-[2-(6,7-dimethoxy-quinazolin-4-ylamino)-thiazol-5-yl]-propionic acid methyl ester]
Aurora B [1]
  IC50: 2.4 µM
VEGF-R2 [2]
  IC50: 0.39 µM
PDGF-Rβ [3]
  IC50: 11 µM
FLT3
  IC50: 8.9 µM
EGF-R
  IC50: 4 µM
VEGF-R3
  IC50: 0.56 µM
TIE2
  IC50: 3.4 µM
Aurora A
  IC50: 0.99 µM

## COc1cc2c(Nc3ncc(CCNC(=O)c4cccc(F)c4)s3)ncnc2cc1OCCCN1CCCC1 [Compound 1, 3-fluoro-N-(2-{2-[6-methoxy-7-(3-pyrrolidin-1-yl-propoxy)-quinazolin-4-ylamino]-thiazol-5-yl}-ethyl)-benzamide]
Aurora B [1]
  IC50: 0.36 µM
VEGF-R2 [2]
  IC50: 2.6 µM
PDGF-Rβ [3]
  IC50: 11 µM
Aurora B [4]
  IC50: 1.1 µM
VEGF-R2 [5]
  IC50: 14 µM
PDGF-Rβ [6]
  IC50: 1.1 µM
FLT3
  IC50: 5.5 µM
VEGF-R3
  IC50: 2.2 µM
TIE2
  IC50: 0.9 µM
Aurora A
  IC50: 0.1 µM

## COc1cc2c(Nc3ncc(CCNC(=O)c4ccccc4)s3)ncnc2cc1OCCCN1CCCC1 [Compound 2, N-(2-{2-[6-methoxy-7-(3-pyrrolidin-1-yl-propoxy)-quinazolin-4-ylamino]-thiazol-5-yl}-ethyl)-benzamide]
Aurora B [1]
  IC50: 0.62 µM
VEGF-R2 [2]
  IC50: 2 µM
PDGF-Rβ [3]
  IC50: 15 µM
FLT3
  IC50: 11 µM
EGF-R
  IC50: 20 µM
VEGF-R3
  IC50: 2.8 µM
TIE2
  IC50: 1 µM
Aurora A
  IC50: 0.16 µM

## COc1cc2ncnc(Nc3ncc(CCC(=O)Nc4cccc(F)c4)s3)c2cc1OC [Compound 7, 3-(2-(6,7-dimethoxyquinazolin-4-ylamino)thiazol-5-yl)-N-(3-fluorophenyl)propanamide]
Aurora B [1]
  IC50: 2.9 µM
VEGF-R2 [2]
  IC50: 1.5 µM
PDGF-Rβ [3]
  IC50: 41 µM
FLT3
  IC50: 25 µM
EGF-R
  IC50: 43 µM
VEGF-R3
  IC50: 1.1 µM
TIE2
  IC50: 21 µM
Aurora A
  IC50: 1.3 µM

## COc1cc2c(Nc3ncc(CCC(=O)Nc4cccc(F)c4)s3)ncnc2cc1OCCCN1CCCC1 [Compound 5, N-(3-fluoro-phenyl)-3-{2-[6-methoxy-7-(3-pyrrolidin-1-yl-propoxy)-quinazolin-4-ylamino]-thiazol-5-yl}-propionamide]
Aurora B [1]
  IC50: 0.61 µM
VEGF-R2 [2]
  IC50: 0.065 µM
PDGF-Rβ [3]
  IC50: 0.56 µM
FLT3
  IC50: 0.38 µM
EGF-R
  IC50: 29 µM
VEGF-R3
  IC50: 0.074 µM
TIE2
  IC50: 0.36 µM
Aurora A
  IC50: 0.4 µM

## COc1cc2c(Nc3ncc(CCC(=O)Nc4ccc(F)cc4)s3)ncnc2cc1OCCCN1CCCC1 [Compound 9, N-(4-fluorophenyl)-3-(2-(6-methoxy-7-(3-(pyrrolidin-1-yl)propoxy)quinazolin-4-ylamino)thiazol-5-yl)propanamide]
Aurora B [1]
  IC50: 0.47 µM
VEGF-R2 [2]
  IC50: 0.096 µM
PDGF-Rβ [3]
  IC50: 1.1 µM
PDGF-Rα
  IC50: 1 µM
LCK
  IC50: 2.3 µM
TRK-A
  IC50: 0.43 µM
FLT3
  IC50: 0.6 µM
EGF-R
  IC50: 10 µM
RET
  IC50: 0.88 µM
KIT
  IC50: 0.11 µM
VEGF-R1
  IC50: 0.64 µM
IRAK4
  IC50: 2.2 µM
VEGF-R3
  IC50: 0.11 µM
TIE2
  IC50: 0.43 µM
Aurora A
  IC50: 0.71 µM
